Test system: 4T1 spheres
Test: 3D sphere co-culture assay, 4T1 spheres with T-cells and/or macrophages
Assay type: cell-based, mouse
Conditions: for cleaved caspase-3 in 4T1 cells: 24 hours
Procedure: T-cells were isolated from the spleens of naïve mice, activated by CD3/CD28, and treated with either 1 μM iTEAD or vehicle. Peritoneal macrophages were isolated from the peritoneal lavage of naïve mice after attachment on culture dishes and treated with either 1 μM iTEAD or vehicle. The immune cells were mixed with tumor cells that were aggregated into spheres in u-shaped molds for 24 hours (FIG. 7).
To investigate whether the effect of iTEAD treatment on macrophages can enhance their crosstalk with T-cells in the lung microenvironment, peritoneal macrophages+/−iTEAD were first isolated and characterized as a model of resident macrophages for ex vivo experiments (FIG. 14, Panel A). It was observed that treatment with VT107 decreased gene expression of M2-like and fibrosis regulators, Aldh1a1 and Cc117 (Chen et al., 2020), as well as TEAD4 and its downstream target gene Ankrd1. […] The iTEAD pretreated peritoneal macrophages and untreated T-cells isolated from the spleen of tumor naïve mice (FIG. 14, Panel A) were then mixed for 5 hours before collecting the conditioned media for analysis. […] Next, these immune cell mixes were added to 4T1 spheres that were embedded into matrix. […] This effect was reversed by an IL12 neutralizing antibody. No change in cleaved caspase-3 in 4T1 cells in the presence of VT107-treated T-cells or macrophages alone, was detected at 24 hours (FIG. 14, Panels C and D). 4T1 cells were then plated and allowed to attach on electrode-coated arrays to monitor cancer cell viability before the addition of macrophages+/−iTEAD and T-cells. […] This reversal of T-cell cytotoxicity by IL12 antibodies was not observed in VT107-treated T-cells in the absence of macrophages (FIG. 15, Panel E) indicating a critical role for IL12 in the crosstalk between macrophages and T-cells.
The hippo pathway has been implicated in T-cell development and function (Du et al., 2014; Ueda et al., 2012). For example, YAP expression is essential for tumor immune suppression by Treg cells that attenuates CD8 T-cell immunity (Geng et al., 2017; Ni et al., 2018; Lebid et al., 2020). […] To investigate whether VT107 directly affected T-cells, T-cells treated with VT107 were co-cultured with 4T1 cells in 2D for 72 hours. […] To further confirm T-cell activation upon TEAD activity reduction, we used Jurkat cells, a CD4 positive human lymphoma cell line (Schneider et al., 1977). […] However, here we show the specific effect of TEAD reduction on granzyme gene expression and degranulation that result in the killing of cancer cells.
One thousand 4T1 cells were aggregated in 81-well agarose molds (Microtissues, #Z764019). […] Images were captured using the Olympus BX40 microscope, and DAB signal per sphere was quantified in imageJ and normalized to the number of nuclei. […]

VT107
cleaved caspase-3 in 4T1 cells (VT107-treated T-cells or macrophages alone): No change | cleaved caspase-3 IHC staining of 4T1 spheres (co-culture with T-cells treated with 1 μM VT107, 72 hours): increased | number of 4T1 cells per sphere (co-culture with T-cells treated with 1 μM VT107, 72 hours vs vehicle): significantly reduced | cleaved caspase-3 in 4T1 cells (iTEAD-treated macrophages and T-cells, spheres in matrix): elevated signal

— US20250352524A1, “PREVENTION OF METASTATIC OUTGROWTH USING TEAD INHIBITORS” (Georgetown University, priority 2024, published 2025)
